# Source: patent publication US6204284A, “Use of 1-(substitutedphenyl)-3-azabicyclo[3.1.0]hexanes for the treatment of chemical dependencies” (priority 1995, dated 2001)
# pIC50: −log10 of the molar value. Where “and” joins values, the source holds several entries; their conditions need not be identical. Equal values may be shown once. Entries after “also recorded” stand apart in the source; their conditions may differ.
# Columns and labels:
# [1] = system: Norepinephrine (NE) reuptake in rat brain synaptosomes; assay: Inhibition of rat synaptosomal uptake of 3H-norepinephrine; format: biochemical; settings: rat diencephalic-mid brain crude synaptosomes; 3H-NE 2×10^-8 M; Hill analysis
# Description: (§1) Male Wistar rats weighing approximately 180-200 g are decapitated and their brains rapidly removed and dissected according to the method of Glowinski and Iversen. Glowinski, J. and Iversen, L. L., Regional studies of catecholamines in the rat brain I. The disposition of 3H-norepinephrine, 3H-dopamine and 3H-DOPA in various regions of the brain. J. Neurochem. 13:655-669, 1966.
# (§2) Striatal tissues are pooled from three rat brains for the uptake of 3H-dopamine (3H-DA) and diencephalic-mid brain areas were used for the uptake of 3H-norepinephrine (3H-NE) and 3H-serotonin (3H-5HT). The tissues are immediately weighed and homogenized with a teflon-glass pestle homogenizer in 10 volumes of ice cold 0.32 M sucrose. The homogenates are centrifuged at 4° C. at 900×g for 10 minutes to remove nuclear particles and cellular debris. The supernatants are carefully withdrawn and transferred into clean test tubes kept in ice. Aliquots of these preparations containing crude synaptic nerve endings are used in subsequent uptake studies.
# (§3) Amine uptake in crude synaptosomes is determined by a method essentially the same as that described by Snyder and Coyle, Snyder, S. H. and Coyle, J. T. Regional differences in 3H-norepinephrine and 3H-dopamine uptake into rat brain homogenates. J. Pharmacol. Exp. Ther. 165:78-86, 1969. Briefly, a 0.1 ml aliquot of the above tissue preparation is added to test tubes containing 3.7 ml of Krebs-Ringer phosphate buffer pH 7.4 with glucose (2 mg/ml), calcium chloride 0.024%, ascorbic acid (0.2 mg/ml) and nialamide (1.24×10^-5M). 1-(3,4-Dichlorophenyl)-3-azabicyclo[3.1.0]hexane hydrochloride at varying concentrations (0.01-2.5 μM) is added in a 0.1 ml volume. The incubation mixtures are agitated at 37° C. for 10 minutes under an atmosphere of 95% oxygen and 5% CO2 in a Dubnoff metabolic shaker to ensure irreversible inhibition of monoamine oxidase (MAO). After this initial pre-incubation period, the tubes are returned to the ice bath. 3H-DA, 3H-NE or 3H-5HT is added in a 0.1 ml volume to give a final concentration of labeled amine of 2×10^-8 M, and the incubation at 37° C. is continued for an additional 4 min. A set of tubes serving as control (uptake at 0° C.) is left in an ice bath. After the final incubation period, the samples are cooled in ice and then centrifuged at 4° C. at 10,000×g. The supernatant fluid is gently poured off from each tube. The surface of the pellet of each sample is washed with 5 ml of ice cold 0.9% sodium chloride which is then aspirated off without disturbing the pellet. The pellet is resuspended in a cintillation fluid ad radioactivity was determined. Protein content in the tissue samples is determined by the method of Lowry et al. Lowry, O. H., Rosebrough, N. J., Farr, A. L. and Randall, R. J. Protein measurement with the folin reagent. J. Biol. Chem. 193:265, 1951. The concentration of drug which inhibits the uptake of the labeled amine by 50% is determined by Hill analysis of the data.
# [2] = system: Serotonin (5-HT) reuptake in rat brain synaptosomes; assay: Inhibition of rat synaptosomal uptake of 3H-serotonin; format: biochemical; settings: rat diencephalic-mid brain crude synaptosomes; 3H-5HT 2×10^-8 M; Hill analysis
# Description: as §1, §2, §3
# Male Wistar rats = assay: Free-choice ethanol (6% v/v) vs tap water drinking, Part I; format: in vivo, rat; settings: for Ethanol Intake / Ethanol Preference / Food Consumption / Total Fluid Intake: mean ± S.D.
# Experimental: Male Wistar rats are presented with an everyday free-choice between a 6% (v/v) ethanol solution and tap water. Following a seven-day baseline period, which establishes a pattern of stable drinking, only those animals whose consumption is greater than 50% of their total fluid intake are given intraperitoneal injections of three drugs. In part I citalopram (positive control) a neuronal serotonin uptake inhibitor at a dose of 30 mg/kg, […], and 1-(3,4-dichlorophenyl)-3-azabicyclo[3.1.0]hexane hydrochloride, also a serotonin uptake inhibitor, at doses of 5, 10 and 20 mg/kg are given by intraperitoneal injection for seven days. In part II, animals are given intraperitoneal injections of diazepam at a dose of 10 mg/kg and again the positive control used is citalopram at 30 mg/kg. Treatment period for part II also is over a seven-day period. Following the seven-day treatment period, a post-treatment period which lasted for an additional seven days is conducted where the animals are presented with a free choice between ethanol and water in order to determine the rate of recovery of ethanol drinking. During baseline, drug treatment and post-treatment periods, ethanol consumption by the rats is calculated in terms of daily ethanol preference ratio (volume of ethanol per volume of total daily fluid intake) and in terms of daily absolute of ethanol ingested (g/kg body weight).
# Two hundred (200) drug-naive male Wistar rats obtained from the Canadian Breeding Farm Laboratories in Charles River Canada are used. All animals weigh between 180-200 g at the beginning of the experiment.
# All animals are individually housed in stainless steel cages, in a room regulated for constant temperature, humidity and a 12-hour light/dark cycle (7:00 a.m.-7:00 p.m.). Each cage is equipped with two calibrated glass Richter tubes to deliver the fluids (ethanol and water) to the animals. All animals are presented with a free choice between ethanol and tap water throughout the experiment. The drinking vessels are randomly reversed in order to avoid bias generated by a position preference in the animals. In addition, Purina Rat Chow is made available throughout the experiment on an ad libitum basis.
# At approximately the same time every day, 1300 h, the volume in mls of ethanol and tap water consumed by each animal is recorded. All tubes are then removed from the cages, rinsed and refilled with the appropriate fluids, i.e., ethanol solution and tap water. Also, all animals are weighed and their corresponding body weights recorded. At this time, additional food is provided.
# Drugs used in part I are dissolved in Ringers solution to form the required doses. Drugs used in part II are suspended in a vehicle which consists of a 2% pre-boiled starch solution containing 5% polyethylene glycol 400 and tween 80 (1 drop/10 ml vehicle). All drugs are administered intraperitoneally according to the schedule (see Treatment period).
# Group 2--citalopram 30 mg/kg (n=10)
# Group 3--1-(3,4-dichlorophenyl)-3-azabicyclo[3.1.0]hexane hydrochloride 5 mg/kg (n=10)
# Group 4--1-(3,4-dichlorophenyl)-3-azabicyclo[3.1.0]hexane hydrochloride 10 mg/kg (n=10)
# Group 5--1-(3,4-dichlorophenyl)-3-azabicyclo[3.1.0]hexane hydrochloride 20 mg/kg (n=10)
# Post-treatment period:--Upon cessation of the drug treatment period, the animals are presented with a free choice between 6% ethanol and tap water for an additional 7 days in order to determine the rate of recovery of ethanol drinking.
# [3] = system: Dopamine (DA) reuptake in rat brain synaptosomes; assay: Inhibition of rat synaptosomal uptake of 3H-dopamine; format: biochemical; settings: rat striatal crude synaptosomes; 3H-DA 2×10^-8 M; Hill analysis
# Description: as §1
# Striatal tissues are pooled from three rat brains for the uptake of 3H-dopamine (3H-DA) and diencephalic-mid brain areas were used for the uptake of 3H-norepinephrine (3H-NE) and 3H-serotonin (3H-5HT). The tissues are immediately weighed and homogenized with a teflon-glass pestle homogenizer in 10 volumes of ice cold 0.32 M sucrose. […]
# Amine uptake in crude synaptosomes is determined by a method essentially the same as that described by Snyder and Coyle, Snyder, S. H. and Coyle, J. T. Regional differences in 3H-norepinephrine and 3H-dopamine uptake into rat brain homogenates. […] The pellet is resuspended in a cintillation fluid ad radioactivity was determined. Protein content in the tissue samples is determined by the method of Lowry et al. Lowry, O. H., Rosebrough, N. J., Farr, A. L. and Randall, R. J. Protein measurement with the folin reagent. […] The concentration of drug which inhibits the uptake of the labeled amine by 50% is determined by Hill analysis of the data.
# [4] = 5 mg/kg i.p. 7 days, Baseline period
# [5] = 5 mg/kg i.p. 7 days, Post-Treatment period
# [6] = 10 mg/kg i.p. 7 days, Baseline period
# [7] = 10 mg/kg i.p. 7 days, Post-Treatment period
# [8] = 20 mg/kg i.p. 7 days, Baseline period
# [9] = 20 mg/kg i.p. 7 days, Baseline period, hydrochloride, 20 mg/kg
# [10] = 20 mg/kg i.p. 7 days, Post-Treatment period
# [11] = 20 mg/kg i.p. 7 days, Post-Treatment period, hydrochloride, 20 mg/kg
smiles,measurement,setting,value
"Cl.Clc1ccc(C23CNCC2C3)cc1Cl (centres unmarked) [1-(3,4-dichlorophenyl)-3-azabicyclo[3.1.0]hexane hydrochloride]",pIC50,[1],[…]
same,Ethanol Intake,Male Wistar rats; [4],5.02 ± 1.16 g/kg body weight
same,Ethanol Preference,Male Wistar rats; [4],83.67 ± 14.58%
same,Food Consumption,Male Wistar rats; [4],19.74 ± 1.65 g/day
same,Total Fluid Intake,Male Wistar rats; [4],5.1937 ± 0.5254 mL/h/kg
same,Ethanol Intake,Male Wistar rats; [5],4.86 ± 1.78 g/kg body weight
same,Ethanol Preference,Male Wistar rats; [5],82.39 ± 20.87%
same,Food Consumption,Male Wistar rats; [5],19.50 ± 1.41 g/day
same,Total Fluid Intake,Male Wistar rats; [5],5.025 ± 0.9108 mL/h/kg
same,Ethanol Intake,Male Wistar rats; [6],4.55 ± 0.90 g/kg body weight
same,Ethanol Preference,Male Wistar rats; [6],75.05 ± 16.53%
same,Food Consumption,Male Wistar rats; [6],20.43 ± 1.55 g/day
same,Total Fluid Intake,Male Wistar rats; [6],5.3292 ± 0.6617 mL/h/kg
same,Ethanol Intake,Male Wistar rats; [7],2.99 ± 1.42 g/kg body weight
same,Ethanol Preference,Male Wistar rats; [7],55.90 ± 28.51%
same,Food Consumption,Male Wistar rats; [7],21.32 ± 1.96 g/day
same,Total Fluid Intake,Male Wistar rats; [7],4.8087 ± 0.6483 mL/h/kg
same,Food Consumption,Male Wistar rats; [8],20.28 ± 1.12 g/day
same,Total Fluid Intake,Male Wistar rats; [8],4.84 ± 0.4304 mL/h/kg
same,Ethanol Intake,Male Wistar rats; [9],3.79 g/kg body weight and 3.80 ± 1.00 g/kg body weight
same,Ethanol Preference,Male Wistar rats; [9],67.94% and 67.94 ± 17.05%
same,Food Consumption,Male Wistar rats; [10],20.88 ± 2.08 g/day
same,Total Fluid Intake,Male Wistar rats; [10],4.4675 ± 0.4983 mL/h/kg
same,Ethanol Intake,Male Wistar rats; [11],3.04 g/kg body weight and 3.04 ± 1.34 g/kg body weight
same,Ethanol Preference,Male Wistar rats; [11],58.66% and 58.66 ± 23.98%
same,Ethanol Preference,"Male Wistar rats; 20 mg/kg i.p. 7 days, Treatment period, hydrochloride, 20 mg/kg",25.55% and 25.55 ± 17.28%
same,Voluntary ethanol consumption (overall statement),"Male Wistar rats; rats, 5, 10 and 20 mg/kg i.p. 7 days, hydrochloride",reduces ethanol intake and ethanol preferences; also recorded: significant effect in attenuating voluntary ethanol consumption
